Laboratory results published in US20080089910A1, “Attenuated Herpes Simplex Virus Type-2, Vectors Thereof and Immunogenic Compositions Thereof” (priority 2004, published 2008).

Experiments:
Assay in all cases: Viral plaque reduction assay, sensitivity to acyclovir
Format in all cases: cell-based, herpes simplex virus type 2
[1] = test system: UL24R; conditions: Human alphaherpesvirus 2; UL24R on Vero cells, plaques after 72 hours; read-out: IC50 (50% inhibitory concentration) of acyclovir
Protocol: (§1) Each of the viruses were plated on Vero cell monolayers in the presence of various concentrations (0-16 μM) of acyclovir. Plaques that formed after 72 hours post infection were counted and the data was used to generate the IC50 of ACV for each virus.
(§2) Plaque reduction assay. Plaque reduction assay was used as described previously (Visalli et al., 2003) with the following modifications. Vero cells were infected with approximately 50 to 100 PFU of virus per well. Acyclovir (ACV) was diluted to the desired concentrations in Dulbecco's Modified Eagle Medium (DMEM) and applied to uninfected Vero monolayers for a thirty minute pre-incubation before the addition of virus. Positive control wells received virus without ACV. Monolayers were incubated for three days at 37° C., fixed, and stained. Plaques were counted, and the data are presented as the mean of at least three independent assays.

[2] = test system: HSV-2 186; conditions: Human alphaherpesvirus 2; HSV-2 186 on Vero cells, plaques after 72 hours; read-out: IC50 (50% inhibitory concentration) of acyclovir
Protocol: as §1, §2

[3] = test system: UL24Δ; conditions: Human alphaherpesvirus 2; UL24Δ on Vero cells, plaques after 72 hours; read-out: IC50 (50% inhibitory concentration) of acyclovir
Protocol: as §1, §2

Measured: IC50

Nc1nc2c(ncn2COCCO)c(=O)[nH]1 [acyclovir]
~3000 nM: all assays above
